Key:
[1] = biological target: Histone deacetylase; settings: prostate
Description: In vitro inhibitory concentration against histone deacetylase of DU-145 prostate cell nuclear extract as deacetylation of biotinylated [3H]-acetyl histone H4 peptide

[2] = system: DU-145; experiment: cells; settings: Homo sapiens, DU-145, 96 h
Description: Inhibitory concentration against DU-145 prostate cancer cell proliferation over 96 hr

IC50 [1]	IC50 [2]	Compound
1200 nM	–	O=C(CCc1ccc(NC(=O)CCCc2ccccc2)cc1)NO
34 nM	–	CC[C@H](C(=O)Nc1ccc(C(=O)NO)cc1)c1ccccc1
68 nM	–	CC[C@@H](C(=O)Nc1ccc(C(=O)NO)cc1)c1ccccc1
520 nM	–	CN(C(=O)CCCc1ccccc1)c1ccc(C(=O)NO)cc1
98 nM	–	CC(C)(C(=O)Nc1ccc(C(=O)NO)cc1)c1ccccc1
–	820 nM	CC(C)[C@@H](C(=O)Nc1ccc(C(=O)NO)cc1)c1ccccc1
157 nM	–	O=C(Cc1ccccc1)Nc1ccc(C(=O)NO)cc1
54 nM	–	CCC(C(=O)Nc1ccc(C(=O)NO)cc1)c1ccccc1 (racemic)
–	110 nM	CC(C)[C@H](C(=O)Nc1ccc(C(=O)NO)cc1)c1ccccc1 [AR-42]

Compound	IC50 [1]	IC50 [2]
CC(C)(CCc1ccccc1)C(=O)Nc1ccc(C(=O)NO)cc1	25 nM	–
O=C(CCCCc1ccccc1)Nc1ccc(C(=O)NO)cc1	250 nM	–
O=C(NO)c1ccc(NC(=O)c2ccccc2)cc1	210 nM	–
O=C(CCCc1ccccc1)NCc1ccc(C(=O)NO)cc1	530 nM	–
